ChEMBL document CHEMBL4311960, “Two optimized antimicrobial peptides with therapeutic potential for clinical antibiotic-resistant Staphylococcus aureus” (Eur J Med Chem, 2019)
The source made the active and inactive calls. The calls are words filed in the database; no cut-off is given here.

Legend:
Staphylococcus aureus [1] = test: Disruption of membrane integrity in methicillin-resistant Staphylococcus aureus ATCC 18466 assessed as extravasation of cytoplasmic content at MIC incubated for 24 hrs by scanning electron microscopy; format: functional, organism-based
Staphylococcus aureus [2] = test: Inhibition of biofilm formation in Staphylococcus aureus ATCC 25923 assessed as downregulation of spa gene at MIC incubated for 1 hr by qRT-PCR; format: functional, organism-based
Staphylococcus aureus [3] = test: Disruption of membrane integrity in methicillin-resistant Staphylococcus aureus ATCC 18466 assessed as invagination of cell membrane at MIC incubated for 24 hrs by scanning electron microscopy; format: functional, organism-based
Staphylococcus aureus [4] = test: Inhibition of biofilm formation in methicillin-resistant Staphylococcus aureus ATCC 19498 assessed as downregulation of mecA gene at MIC incubated for 1 hr by qRT-PCR; format: functional, organism-based
Staphylococcus aureus [5] = test: Disruption of membrane integrity in methicillin-resistant Staphylococcus aureus ATCC 18466 assessed as perforation of cell membrane at MIC incubated for 24 hrs by scanning electron microscopy; format: functional, organism-based
Staphylococcus aureus [6] = test: Disruption of membrane integrity in Staphylococcus aureus ATCC 25923 assessed as perforation of cell membrane at MIC incubated for 24 hrs by scanning electron microscopy; format: functional, organism-based
Staphylococcus aureus [7] = test: Disruption of membrane integrity in Staphylococcus aureus ATCC 29213 assessed as shrinking of cell membrane at MIC incubated for 24 hrs by scanning electron microscopy; format: functional, organism-based
Staphylococcus aureus [8] = test: Antibacterial activity against Staphylococcus aureus ATCC 25923 assessed as reduction in bacterial growth incubated for 24 hrs by serial dilution method; format: functional; settings: ATCC 25923, 24 h, read-out: MIC
Staphylococcus aureus [9] = test: Inhibition of biofilm formation in methicillin-resistant Staphylococcus aureus ATCC 19498 assessed as downregulation of hld gene at MIC incubated for 1 hr by qRT-PCR; format: functional, organism-based
Staphylococcus aureus [10] = test: Inhibition of biofilm formation in methicillin-resistant Staphylococcus aureus ATCC 19498 assessed as downregulation of spa gene at MIC incubated for 1 hr by qRT-PCR; format: functional, organism-based
Staphylococcus aureus [11] = test: Inhibition of biofilm formation in methicillin-resistant Staphylococcus aureus ATCC 18466 assessed as downregulation of hld gene at MIC incubated for 1 hr by qRT-PCR; format: functional, organism-based
Staphylococcus aureus [12] = test: Disruption of membrane integrity in methicillin-resistant Staphylococcus aureus ATCC 19498 assessed as extravasation of cytoplasmic content at MIC incubated for 24 hrs by scanning electron microscopy; format: functional, organism-based
Staphylococcus aureus [13] = test: Inhibition of biofilm formation in Staphylococcus aureus ATCC 29213 assessed as downregulation of mecA gene at MIC incubated for 1 hr by qRT-PCR; format: functional, organism-based
Staphylococcus aureus [14] = test: Disruption of membrane integrity in methicillin-resistant Staphylococcus aureus ATCC 18466 assessed as decrease in cell volume at MIC incubated for 24 hrs by scanning electron microscopy; format: functional, organism-based
Staphylococcus aureus [15] = test: Disruption of membrane integrity in methicillin-resistant Staphylococcus aureus ATCC 18466 assessed as cell membrane damage at MIC incubated for 24 hrs by scanning electron microscopy; format: functional, organism-based
[16] = Cytotoxicity against human HEK293T cells assessed as cell viability at 5 to 640 ug/ml incubated for 48 hrs by MTT assay relative to control; format: cell-based, HEK-293T; settings: read-out: Activity
Staphylococcus aureus [17] = test: Disruption of membrane integrity in Staphylococcus aureus ATCC 25923 assessed as extravasation of cytoplasmic content at MIC incubated for 24 hrs by scanning electron microscopy; format: functional, organism-based
Staphylococcus aureus [18] = test: Inhibition of biofilm formation in methicillin-resistant Staphylococcus aureus ATCC 18466 assessed as downregulation of […] gene at MIC incubated for 1 hr by qRT-PCR; format: functional, organism-based

| Substance | Activity (Staphylococcus aureus [1]) | inhibition (Staphylococcus aureus [2]) | Activity (Staphylococcus aureus [3]) | inhibition (Staphylococcus aureus [4]) | Activity (Staphylococcus aureus [5]) | Activity (Staphylococcus aureus [6]) | Activity (Staphylococcus aureus [7]) | MIC (Staphylococcus aureus [8]) | inhibition (Staphylococcus aureus [9]) | inhibition (Staphylococcus aureus [10]) | inhibition (Staphylococcus aureus [11]) | Activity (Staphylococcus aureus [12]) | inhibition (Staphylococcus aureus [13]) | Activity (Staphylococcus aureus [14]) | Activity (Staphylococcus aureus [15]) | viability at 48 h [16] | Activity (Staphylococcus aureus [17]) | inhibition (Staphylococcus aureus [18]) |
| --- | --- | --- | --- | --- | --- | --- | --- | --- | --- | --- | --- | --- | --- | --- | --- | --- | --- | --- |
| H-YIRKIRRFFKKLKKILKK-NH2 | Active | Active | Active | inactive | Active | Active | Active | 8 µg/mL | Active | Active | Active | Active | inactive | Active | Active | 70 to 80% | Active | Active |
| H-SYERKINRHFKTLKKNLKKK-NH2 | Active | Active | Active | inactive | Active | Active | Active | 32 µg/mL | Active | Active | Active | Active | inactive | Active | Active | 70 to 80% | Active | Active |
